Results on 21 compounds are retold here after patent publication US20250236611A1, “PYRAZOLE COMPOUNDS AND USES THEREOF” (ALCON INC., priority 2021, published 2025).

What all share (assay type): biochemical
Holding throughout (conditions): 10 nM JAK enzyme, 800 nM Abl peptide, room temperature 75 min

One experiment deals with T1, JAK3 (Homo sapiens, UniProt P52333).
T1 sequence (P52333 1-1124): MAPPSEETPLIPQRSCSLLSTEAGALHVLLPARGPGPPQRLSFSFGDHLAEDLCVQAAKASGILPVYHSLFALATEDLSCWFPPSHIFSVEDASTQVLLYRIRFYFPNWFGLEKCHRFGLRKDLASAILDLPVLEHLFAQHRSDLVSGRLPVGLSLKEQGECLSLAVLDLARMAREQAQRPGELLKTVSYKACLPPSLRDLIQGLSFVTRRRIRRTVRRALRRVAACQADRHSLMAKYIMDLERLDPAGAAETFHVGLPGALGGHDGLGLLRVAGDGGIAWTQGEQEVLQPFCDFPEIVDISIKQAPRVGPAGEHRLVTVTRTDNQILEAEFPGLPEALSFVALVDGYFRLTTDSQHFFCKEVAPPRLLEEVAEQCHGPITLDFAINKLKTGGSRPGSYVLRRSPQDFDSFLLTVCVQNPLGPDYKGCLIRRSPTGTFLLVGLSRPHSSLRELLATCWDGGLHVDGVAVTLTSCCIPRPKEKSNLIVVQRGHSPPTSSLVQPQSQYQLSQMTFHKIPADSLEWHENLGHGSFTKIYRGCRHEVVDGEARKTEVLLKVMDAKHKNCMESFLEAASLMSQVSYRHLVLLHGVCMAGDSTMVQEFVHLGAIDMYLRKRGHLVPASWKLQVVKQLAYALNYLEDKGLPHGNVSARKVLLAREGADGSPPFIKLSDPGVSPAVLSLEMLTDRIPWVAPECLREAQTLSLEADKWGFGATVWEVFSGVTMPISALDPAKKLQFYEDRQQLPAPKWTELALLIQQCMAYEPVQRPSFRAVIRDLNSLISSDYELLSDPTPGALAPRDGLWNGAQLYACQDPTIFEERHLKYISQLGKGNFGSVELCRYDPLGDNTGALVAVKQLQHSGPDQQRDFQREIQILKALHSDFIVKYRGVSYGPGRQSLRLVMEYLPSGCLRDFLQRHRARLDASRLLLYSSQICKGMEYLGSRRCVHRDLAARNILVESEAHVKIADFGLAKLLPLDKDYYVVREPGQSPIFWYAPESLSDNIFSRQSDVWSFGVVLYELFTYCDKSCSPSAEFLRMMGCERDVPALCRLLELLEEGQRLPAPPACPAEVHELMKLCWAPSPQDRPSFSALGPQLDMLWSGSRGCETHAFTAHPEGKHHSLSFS
Put plainly: JAK assay (KINASE-GLO luminescent kinase assay), JAK3. The procedure: (§1) All compounds were initially prepared as 10 mM stocks in anhydrous dimethylsulfoxide (DMSO). A 20 μL aliquot of the 10 mM solutions was transferred to individual wells in column 1 of a 96-well polypropylene microtiter plate (Corning #3363) and diluted with DMSO to give a final compound concentration of 4 mM. Test compounds were then serially diluted 1:5 in DMSO for an 11-point concentration response and further diluted in the assay buffer bringing all compound concentrations to a final range of 100 μM to 10 pM in 2.5% DMSO. The assay was performed in white 96-well, flat-bottom, half-area, non-binding assay plate (Corning #3642) in assay buffer consisting of 20 mM HEPES (pH 7.5), 10 mM MgCl2*6H2O, 100 μM sodium orthovanadate, 0.05% CHAPS and 0.1% bovine serum albumin. A 10 μL aliquot of compound from each well of the intermediate dilution plate and 20 μL of a 2×JAK substrate/enzyme solution containing acceptor substrate (800 nM Abl peptide), JAK enzyme (10 nM JAK1, JAK2, JAK3, or TYK2), and 1,4-Dithiothreitol (DTT, 2 μM) were added to all wells. The reaction was initiated by the addition of 10 μL of 4× stock solution ATP (2 μM). Reactions were thoroughly mixed manually, covered and allowed to incubate at room temperature for 75 min. Protein kinase activity was quantitated using Promega's KINASE-GLO™ luminescent Kinase Assay Kit according to the manufacturer's directions. ATP concentrations remaining in Test wells following the termination of the enzymatic reaction were compared against control wells containing equivalent amounts of DMSO containing no inhibitor (CTRL). […] Percent of Control (POC) values were determined for each concentration of compound tested according to the equation:
(§2) [formula] • IC50 values were calculated using the following 4-parameter logistic curve-fitting algorithm:
(§3) [formula] • IC50 values were converted to Ki values using the Cheng-Prusoff Equation: […]

The target in a further experiment is TYK2 (Homo sapiens, UniProt P29597). Put plainly: JAK assay (KINASE-GLO luminescent kinase assay), TYK2. The procedure:
as §1, with “A 20 μL aliquot of the 10 mM solutions was transferred to individual wells in column 1 of a 96-well polypropylene microtiter plate (Corning #3363) and diluted with DMSO to give a final compound concentration of 4 mM.” left out
as §2, §3
In general terms: Kinase-Glo measures the ATP left after a reaction by luminescence.

A further experiment concerns the target JAK2 (Homo sapiens, UniProt O60674). Put plainly: JAK assay (KINASE-GLO luminescent kinase assay), JAK2. The method, then:
as §1, §2, §3

The next experiment addresses JAK1 (Homo sapiens, UniProt P23458). Put plainly: JAK assay (KINASE-GLO luminescent kinase assay), JAK1. The method, then: as §1, §2, §3

Molecules are shown by their SMILES. A value given as a limit tells only on which side of the number the result lay.

Chain of JAK1 (P23458 whole entry): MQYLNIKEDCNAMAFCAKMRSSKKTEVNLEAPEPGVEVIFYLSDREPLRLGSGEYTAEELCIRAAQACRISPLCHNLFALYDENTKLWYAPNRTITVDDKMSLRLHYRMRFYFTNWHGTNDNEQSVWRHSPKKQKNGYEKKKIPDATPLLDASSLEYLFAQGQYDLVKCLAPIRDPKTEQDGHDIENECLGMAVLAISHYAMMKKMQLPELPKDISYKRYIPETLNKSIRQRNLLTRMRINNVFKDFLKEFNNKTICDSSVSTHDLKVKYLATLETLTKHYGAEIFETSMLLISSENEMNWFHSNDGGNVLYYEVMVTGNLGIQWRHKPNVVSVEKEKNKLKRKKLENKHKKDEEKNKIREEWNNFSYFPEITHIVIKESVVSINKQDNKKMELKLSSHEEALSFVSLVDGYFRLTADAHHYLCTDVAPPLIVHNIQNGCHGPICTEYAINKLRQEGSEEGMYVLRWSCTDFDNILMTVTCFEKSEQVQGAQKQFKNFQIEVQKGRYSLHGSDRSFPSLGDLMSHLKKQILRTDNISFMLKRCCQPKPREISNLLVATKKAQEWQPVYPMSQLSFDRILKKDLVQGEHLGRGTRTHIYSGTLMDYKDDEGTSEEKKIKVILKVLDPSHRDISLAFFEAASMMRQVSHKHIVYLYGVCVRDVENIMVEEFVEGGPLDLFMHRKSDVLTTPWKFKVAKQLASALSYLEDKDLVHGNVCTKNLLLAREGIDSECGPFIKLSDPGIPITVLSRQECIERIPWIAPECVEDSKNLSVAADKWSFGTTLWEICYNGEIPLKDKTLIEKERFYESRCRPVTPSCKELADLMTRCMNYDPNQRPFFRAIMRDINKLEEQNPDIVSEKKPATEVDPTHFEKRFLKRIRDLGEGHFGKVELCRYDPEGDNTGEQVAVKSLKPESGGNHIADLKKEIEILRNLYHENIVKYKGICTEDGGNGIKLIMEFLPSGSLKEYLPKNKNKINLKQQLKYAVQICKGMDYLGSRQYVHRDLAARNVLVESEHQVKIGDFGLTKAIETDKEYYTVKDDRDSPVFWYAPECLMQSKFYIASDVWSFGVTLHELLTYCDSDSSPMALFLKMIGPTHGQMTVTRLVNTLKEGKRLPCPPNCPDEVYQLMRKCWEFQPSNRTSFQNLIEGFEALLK
Chain of TYK2 (P29597 whole entry): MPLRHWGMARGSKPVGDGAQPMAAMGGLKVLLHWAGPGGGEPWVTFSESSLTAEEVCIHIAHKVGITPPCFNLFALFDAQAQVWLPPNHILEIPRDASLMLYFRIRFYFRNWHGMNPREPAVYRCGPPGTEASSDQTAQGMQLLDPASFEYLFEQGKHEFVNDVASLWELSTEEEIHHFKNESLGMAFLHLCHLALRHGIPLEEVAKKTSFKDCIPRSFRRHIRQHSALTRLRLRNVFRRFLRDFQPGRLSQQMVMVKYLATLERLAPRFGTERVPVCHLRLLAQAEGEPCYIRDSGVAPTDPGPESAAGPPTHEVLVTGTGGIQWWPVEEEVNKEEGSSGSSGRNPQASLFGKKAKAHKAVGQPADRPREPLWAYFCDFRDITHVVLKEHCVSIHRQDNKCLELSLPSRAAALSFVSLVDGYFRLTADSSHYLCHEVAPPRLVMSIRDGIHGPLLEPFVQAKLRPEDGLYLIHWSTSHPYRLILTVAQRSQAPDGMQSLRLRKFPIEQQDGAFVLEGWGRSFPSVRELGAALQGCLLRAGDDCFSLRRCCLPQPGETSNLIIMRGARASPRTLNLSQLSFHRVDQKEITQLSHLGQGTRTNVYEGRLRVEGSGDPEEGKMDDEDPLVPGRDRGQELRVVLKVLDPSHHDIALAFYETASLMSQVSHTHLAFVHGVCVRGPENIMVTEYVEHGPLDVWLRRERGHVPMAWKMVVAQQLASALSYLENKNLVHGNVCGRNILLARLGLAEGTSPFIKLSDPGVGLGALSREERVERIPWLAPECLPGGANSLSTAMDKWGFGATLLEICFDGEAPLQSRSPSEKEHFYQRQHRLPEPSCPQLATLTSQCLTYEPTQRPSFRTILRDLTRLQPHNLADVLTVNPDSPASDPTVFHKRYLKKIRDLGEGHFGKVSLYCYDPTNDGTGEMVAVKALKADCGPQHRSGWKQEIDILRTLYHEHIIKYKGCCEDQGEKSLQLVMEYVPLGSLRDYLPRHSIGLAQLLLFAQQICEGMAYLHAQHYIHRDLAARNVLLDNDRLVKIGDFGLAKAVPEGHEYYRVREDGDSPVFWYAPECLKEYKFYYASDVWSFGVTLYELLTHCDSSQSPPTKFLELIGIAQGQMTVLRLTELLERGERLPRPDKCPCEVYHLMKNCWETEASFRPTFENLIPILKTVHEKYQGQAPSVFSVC
Chain of JAK2 (O60674 whole entry): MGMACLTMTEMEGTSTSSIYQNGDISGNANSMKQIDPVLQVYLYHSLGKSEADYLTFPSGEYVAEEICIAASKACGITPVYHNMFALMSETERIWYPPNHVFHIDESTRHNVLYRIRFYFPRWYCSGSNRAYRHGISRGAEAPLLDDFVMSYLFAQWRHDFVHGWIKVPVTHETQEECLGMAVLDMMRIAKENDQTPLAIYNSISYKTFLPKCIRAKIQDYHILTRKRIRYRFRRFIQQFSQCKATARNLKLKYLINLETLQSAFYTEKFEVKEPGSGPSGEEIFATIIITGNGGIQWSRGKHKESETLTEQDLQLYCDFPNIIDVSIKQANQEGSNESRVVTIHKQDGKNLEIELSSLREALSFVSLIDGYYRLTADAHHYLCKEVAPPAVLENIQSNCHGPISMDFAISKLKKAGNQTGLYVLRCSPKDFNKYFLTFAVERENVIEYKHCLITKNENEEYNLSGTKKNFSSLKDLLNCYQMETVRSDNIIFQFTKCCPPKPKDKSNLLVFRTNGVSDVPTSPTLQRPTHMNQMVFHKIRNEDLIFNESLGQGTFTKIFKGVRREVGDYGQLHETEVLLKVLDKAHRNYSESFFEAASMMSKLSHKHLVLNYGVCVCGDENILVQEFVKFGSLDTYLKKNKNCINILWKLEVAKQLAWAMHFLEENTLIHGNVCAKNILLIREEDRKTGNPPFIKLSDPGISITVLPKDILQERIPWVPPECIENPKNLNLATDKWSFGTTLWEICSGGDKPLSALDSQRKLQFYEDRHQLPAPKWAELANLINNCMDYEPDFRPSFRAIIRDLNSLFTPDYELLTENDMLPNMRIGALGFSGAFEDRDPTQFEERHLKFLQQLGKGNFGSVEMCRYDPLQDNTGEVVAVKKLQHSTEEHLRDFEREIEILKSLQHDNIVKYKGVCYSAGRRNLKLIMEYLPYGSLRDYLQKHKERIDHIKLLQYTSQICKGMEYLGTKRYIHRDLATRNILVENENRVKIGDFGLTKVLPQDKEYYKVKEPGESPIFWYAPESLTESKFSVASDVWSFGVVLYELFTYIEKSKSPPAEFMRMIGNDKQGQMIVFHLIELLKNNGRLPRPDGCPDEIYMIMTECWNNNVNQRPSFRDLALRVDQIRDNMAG

Broadly, the IC50 is the concentration needed to halve the response being measured. A low value points to inhibition by little substance. As for `Cc1cc(Nc2ncc(C)c(-c3cnn(CC4(CF)CC4)c3)n2)ccc1N1CCN(C)CC1` [CN1CCN(CC1)C2═C(C)C═C(NC3═NC], the IC50 against JAK3 was less than 10 nM; against TYK2 it was less than 10 nM; at JAK2, less than 10 nM; at JAK1 it was less than 100 nM.
Turning to `Cc1cnc(Nc2cc(CO)ns2)nc1-c1cnn(CC2(CF)CC2)c1` [CC1═C(N═C(NC2═CC(═NS2)CO)N═C1)C3═C[N]], the IC50 at JAK3, at TYK2, against JAK2 and against JAK1 was less than 10 nM each time.
For `N#CC1(Cn2cc(-c3nc(Nc4ccc(C(=O)O)nc4)ncc3Cl)cn2)CC1` [OC(═O)C1═NC═C(NC2═NC(═C], the 50% inhibitory concentration (IC50) against JAK3 was less than 1000 nM; against TYK2, less than 100 nM; against JAK2, less than 10 nM; at JAK1 it was less than 100 nM.
Consider `Cc1cnc(NC2CCOCC2)nc1-c1cnn(CCC#N)c1` [CC1═C(N═C(NC2CCOCC2)N═C1)C3═C[N]], for which the IC50 against JAK3 is greater than 50000 nM; at TYK2, greater than 50000 nM; against JAK2, less than 100000 nM; at JAK1, less than 100000 nM.
Take `CC(C)(C)OC(=O)N1CCC(Nc2ncc(Cl)c(-c3cnn(CCC#N)c3)n2)C(F)(F)C1` (stereo not drawn) [CC(C)(C)OC(═O)N1CCC(NC2═NC(═C]: the IC50 on JAK3, against TYK2, against JAK2 and on JAK1 was greater than 50000 nM each time.
Regarding `CNCc1cc(Nc2ncc(C)c(-c3cnn(CC4(CF)CC4)c3)n2)sn1` [CNCC1═NSC(═C1)NC2═NC(═C], the IC50 was less than 100 nM against JAK3, less than 100 nM against TYK2, less than 10 nM against JAK2 and less than 100 nM against JAK1.
Turning to `COc1cnc(Nc2ccc(C3(O)COC3)cc2)nc1-c1cnn(CC2(CF)CC2)c1` [COC1═C(N═C(NC2═CC═C(C═C2)C3], the IC50 was less than 100 nM against JAK3, less than 100 nM against TYK2, less than 10 nM against JAK2 and less than 1000 nM on JAK1.
As for `Cc1cnc(Nc2ccnc(OCCN(C)C)c2)nc1-c1cnn(CC2(CC#N)CC2)c1` [CN(C)CCOC1═CC(═CC═N1)NC2═NC(═C], the half-maximal inhibitory concentration (IC50) at JAK3 is less than 100 nM; against TYK2, less than 100 nM; against JAK2 it was less than 10 nM; against JAK1, less than 100 nM.
Consider `Cc1cnc(Nc2ccc(CNC(=O)[C@H](C)N)cc2)nc1-c1cnn(CC2(CF)CC2)c1` [C[C@H](N)C(═O)NCC1═CC═C(NC2═NC], for which the half-inhibitory concentration (IC50) against JAK3 was less than 100 nM; against TYK2 it was less than 100 nM; against JAK2, less than 10 nM; at JAK1, less than 100 nM.
Take `Cc1cnc(NC(=O)Nc2ccc(Cl)cc2)nc1-c1cnn(CC2(CF)CC2)c1` [CC1═C(N═C(NC(═O)NC2═CC═C]: the IC50 on JAK3, at TYK2, against JAK2 and on JAK1 was greater than 50000 nM throughout.
Consider `Cc1cc(Nc2ncc(C)c(-c3cnn(CC4(CF)CCC4)c3)n2)sn1` [CC1═NSC(═C1)NC2═NC═C(C)C], for which the IC50 at JAK3, at TYK2, at JAK2 and at JAK1 was less than 10 nM throughout.
With `Cc1cnc(Nc2ccc(N3CCOCC3)cc2)nc1-c1cnn(CC2(C#N)CC2)c1` [C(C1═C(N═C(NC2═CC═C(C═C2)N3CCOCC3)], the IC50 against JAK3 was less than 10 nM; against TYK2 it was less than 10 nM; against JAK2, less than 10 nM; against JAK1, less than 100 nM.
As to `Cc1cc(Nc2ncc(C)c(-c3cnn(CC4(CF)CCC4)c3)n2)ccn1` [CC1═NC═CC(═C1)NC2═NC(═C], the half-inhibitory concentration (IC50) was less than 100 nM on JAK3, less than 100 nM against TYK2, less than 10 nM against JAK2 and less than 1000 nM at JAK1.
As for `COC1(c2ccc(Nc3ncc(C)c(-c4cnn(CC5(CF)CC5)c4)n3)cc2)COC1` [COC1(COC1)C2═CC═C(NC3═NC(═C], the IC50 at JAK3 is less than 1000 nM; on TYK2 it was less than 1000 nM; at JAK2, less than 100 nM; against JAK1, 1880 nM.
As to `Cc1cnc(Nc2ccc(CCN(C)C)cc2)nc1-c1cnn(CC2(CF)CC2)c1` [CN(C)CCC1═CC═C(NC2═NC(═C], the IC50 is less than 100 nM against JAK3, less than 100 nM at TYK2, less than 10 nM on JAK2 and less than 1000 nM against JAK1.
For the compound `N#CCCn1cc(-c2nc(Nc3ccc(C(=O)O)cc3)ncc2Cl)cn1` [OC(═O)C1═CC═C(NC2═NC(═C], the concentration for half-maximal inhibition (IC50) against JAK3 was less than 100 nM; on TYK2, less than 10 nM; on JAK2, less than 10 nM; on JAK1, less than 10 nM.
With `CC(C)(C)OC(=O)N1CCN(c2ccc(Nc3ncc(Cl)c(-c4cnn(CCC#N)c4)n3)cc2)CC1` [CC(C)(C)OC(═O)N1CCN(CC1)C2═CC═C], the half-maximal inhibitory concentration (IC50) against JAK3 was less than 10 nM; against TYK2 it was less than 10 nM; against JAK2, less than 10 nM; at JAK1, less than 100 nM.
On to `NCc1cccc(Nc2ncc(Cl)c(-c3cnn(CC4(CF)CC4)c3)n2)c1` [NCC1═CC═CC(═C1)NC2═NC(═C], for which the 50% inhibitory concentration (IC50) was less than 10 nM against JAK3, less than 100 nM against TYK2, less than 10 nM on JAK2 and less than 100 nM on JAK1.
Regarding `Cc1cnc(Nc2ccc(N3CC4(COC4)C3)cc2)nc1-c1cnn(CC2(CF)CC2)c1` [CC1═C(N═C(NC2═CC(═C(C═C2)N3CC4], the IC50 against JAK3 was less than 10 nM; against TYK2 it was less than 10 nM; against JAK2, less than 10 nM; against JAK1 it was less than 100 nM.
Consider `Cc1cnc(Nc2cc(CN3CCN(C)CC3)ns2)nc1-c1cnn(CC2(CF)CC2)c1` [CN1CCN(CC1)CC2═NSC(═C2)NC3═NC], for which the half-inhibitory concentration (IC50) against JAK3 was less than 100 nM; at TYK2, less than 100 nM; at JAK2, less than 10 nM; against JAK1 it was less than 1000 nM.
With `Cc1cnc(Nc2cn(C)nn2)nc1-c1cnn(CC2(CF)CC2)c1` [C[N]1C═C(NC2═NC(═C(C)C═N2)C3═C[N]], the 50% inhibitory concentration (IC50) against JAK3 was less than 1000 nM; on TYK2, less than 1000 nM; against JAK2, less than 100 nM; at JAK1 it was less than 1000 nM.
